Test results published in US7888386B2, “3-(phenoxyphenylmethyl)pyrrolidine compounds” (Theravance, Inc., priority 2008, dated 2011).
Like-named read-outs stand apart in the source and are kept apart here.

Experiments:
hSERT = target: T1, hSERT (Homo sapiens, UniProt P31645); test: hSERT binding assay (Assay 1)
T1 construct: expressed in transfected cells; host or cells: HEK-293 derived cell line, stably transfected; membrane preparation
Description: (§1) Membrane radioligand binding assays were used to measure competitive inhibition of labeled ligand (^3H-citalopram or ^3H-nisoxetine or ^3H-WIN35428) binding to membranes prepared from cells expressing the respective human recombinant transporter (hSERT or hNET or hDAT) in order to determine the pKi values of test compounds at the transporters.
(§2) Recombinant human embryonic kidney (HEK-293) derived cell lines stably transfected with hSERT or hNET, respectively, were grown in DMEM medium supplemented with 10% dialyzed FBS (for hSERT) or FBS (for hNET), 100 μg/ml penicillin, 100 μg/ml streptomycin, 2 mM L-glutamine and 250 μg/ml of the aminoglycoside antibiotic G418, in a 5% CO2 humidified incubator at 37° C. When cultures reached 80% confluence, the cells were washed thoroughly in PBS (without Ca^2+ and Mg^2+) and lifted with 5 mM EDTA in PBS. Cells were pelleted by centrifugation, resuspended in lysis buffer (10 mM Tris-HCl, pH 7.5 containing 1 mM EDTA), homogenized, pelleted by centrifugation, then resuspended in 50 mM Tris-HCl, pH 7.5 and 10% sucrose at 4° C. Protein concentration of the membrane suspension was determined using a Bio-Rad Bradford Protein Assay kit. Membranes were snap frozen and stored at −80° C. Chinese hamster ovary membranes expressing hDAT (CHO-DAT) were purchased from PerkinElmer and stored at −80° C.
(§3) Stock solutions (10 mM in DMSO) of test compound were prepared and serial dilutions made using Dilution Buffer (50 mM Tris-HCl, 120 mM NaCl, 5 mM KCl, pH 7.4, 0.1% BSA, 400 μM ascorbic acid).
(§4) Following a 60 minute incubation at 22° C. (or a period sufficient to reach equilibrium), the membranes were harvested by rapid filtration over a 96-well UniFilter GF/B plate, pretreated with 0.3% polyethyleneimine, and washed 6 times with 300 μl wash buffer (50 mM Tris-HCl, 0.9% NaCl, pH 7.5 at 4° C.). Plates were dried overnight at room temperature, ˜45 μl of MicroScint™-20 (Perkin Elmer) added and bound radioactivity quantitated via liquid scintillation spectroscopy. Competitive inhibition curves and saturation isotherms were analyzed using GraphPad Prism Software package (GraphPad Software, Inc., San Diego, Calif.). IC50 values were generated from concentration response curves using the Sigmoidal Dose Response (variable slope) algorithm in Prism GraphPad.

hNET = target: T2, hNET (Homo sapiens, UniProt P23975); test: hNET binding assay (Assay 1); conditions: read-out: NET pKi (converted)
T2 construct: expressed in transfected cells; host or cells: HEK-293 derived cell line, stably transfected; membrane preparation
Description: as §1, §2, §3, §4

[1] = ratio of SERT Ki to NET Ki from binding assays
[2] = ratio of SERT Ki to NET Ki (binding)
[3] = ratio of binding Ki at SERT to Ki at NET, the tables list only compounds with a ratio in the range 0.1-100
[4] = ratio of binding Ki at hSERT to Ki at hNET, rounded off to the nearest tenth

T2 sequence (P23975 whole entry): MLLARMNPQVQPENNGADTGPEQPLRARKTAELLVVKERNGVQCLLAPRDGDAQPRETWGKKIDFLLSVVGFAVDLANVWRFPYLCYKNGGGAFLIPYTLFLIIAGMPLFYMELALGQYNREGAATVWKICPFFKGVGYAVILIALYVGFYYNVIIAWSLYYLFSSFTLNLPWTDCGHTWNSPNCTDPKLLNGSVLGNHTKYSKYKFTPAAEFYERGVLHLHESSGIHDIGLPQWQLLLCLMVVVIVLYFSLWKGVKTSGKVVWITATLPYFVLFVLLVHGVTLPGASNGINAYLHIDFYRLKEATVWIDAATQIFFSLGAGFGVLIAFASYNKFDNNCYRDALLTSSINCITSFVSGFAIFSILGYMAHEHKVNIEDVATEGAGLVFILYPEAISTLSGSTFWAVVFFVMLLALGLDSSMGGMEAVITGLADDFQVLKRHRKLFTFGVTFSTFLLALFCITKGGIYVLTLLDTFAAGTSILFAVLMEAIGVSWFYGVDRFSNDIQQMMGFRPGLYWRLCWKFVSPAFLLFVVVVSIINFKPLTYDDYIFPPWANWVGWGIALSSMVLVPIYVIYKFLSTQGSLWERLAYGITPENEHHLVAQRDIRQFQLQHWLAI
T1 sequence (P31645 whole entry): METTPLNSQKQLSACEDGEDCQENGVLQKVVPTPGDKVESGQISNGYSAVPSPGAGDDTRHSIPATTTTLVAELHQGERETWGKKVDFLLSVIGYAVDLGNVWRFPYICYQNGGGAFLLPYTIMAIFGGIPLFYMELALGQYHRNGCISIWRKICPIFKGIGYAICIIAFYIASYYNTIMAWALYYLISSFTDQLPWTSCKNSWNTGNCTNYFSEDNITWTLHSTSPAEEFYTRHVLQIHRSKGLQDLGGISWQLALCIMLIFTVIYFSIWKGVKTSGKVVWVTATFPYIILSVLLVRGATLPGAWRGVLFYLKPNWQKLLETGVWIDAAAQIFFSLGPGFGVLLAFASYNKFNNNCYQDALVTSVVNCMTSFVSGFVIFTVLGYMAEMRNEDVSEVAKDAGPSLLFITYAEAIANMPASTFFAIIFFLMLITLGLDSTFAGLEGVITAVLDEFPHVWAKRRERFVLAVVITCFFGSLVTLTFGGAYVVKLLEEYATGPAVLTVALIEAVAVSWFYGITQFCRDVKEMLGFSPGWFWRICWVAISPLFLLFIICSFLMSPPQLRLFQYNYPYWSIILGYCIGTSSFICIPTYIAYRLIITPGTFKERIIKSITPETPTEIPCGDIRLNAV

Row | Structure (SMILES) | SERT Ki/NET Ki (hSERT; [1]) | further results
1 | Fc1ccc(Cl)cc1O[C@@H](c1ccccc1)[C@H]1CCNC1 [29-5] | 16 | Ki (hNET; hNET binding assay): 0.501 nM
2 | Fc1ccc(Cl)cc1O[C@H](c1ccccc1)[C@@H]1CCNC1 [29-6] | 0.3 | Ki (hNET; hNET binding assay): 3.98 nM
3 | Fc1ccc(Br)cc1OC(c1ccccc1)C1CCNC1 (centres unmarked) [29-7] | 1.6 | Ki (hNET; hNET binding assay): 0.794 nM
4 | Cc1ccc(F)c(OC(c2ccccc2)C2CCNC2)c1 (centres unmarked) [29-8] | 3.2 | Ki (hNET; hNET binding assay): 1.58 nM
5 | Cc1ccc(F)c(O[C@@H](c2ccccc2)[C@H]2CCNC2)c1 [29-9] | 10 | Ki (hNET; hNET binding assay): 1.26 nM
6 | Fc1ccc(Cl)c(O[C@H](c2ccccc2)[C@@H]2CCNC2)c1 [29-13] | 0.2 | –
7 | Cc1ccc(Cl)cc1OC(c1ccccc1)C1CCNC1 (centres unmarked) [29-18] | 0.1 | –
8 | COc1ccc(C)cc1OC(c1ccccc1)C1CCNC1 (centres unmarked) [29-27] | 2 | –
9 | Cc1cccc(Cl)c1OC(c1ccccc1)C1CCNC1 (centres unmarked) [31-13] | 0.6 | –
10 | Fc1cc(F)cc(C(Oc2cc(Cl)ccc2F)C2CCNC2)c1 (centres unmarked) [32-2] | 2.5 | –
11 | COc1ccc(F)c(OC(c2ccccc2Cl)C2CCNC2)c1 (centres unmarked) [32-3] | 4 | –
12 | Clc1ccc(Cl)c(OC(c2ccccc2Cl)C2CCNC2)c1 (centres unmarked) [32-7] | 0.6 | –
13 | Fc1ccc(C(Oc2cc(Cl)ccc2Cl)C2CCNC2)cc1 (centres unmarked) [32-11] | 4 | –
14 | COc1cccc(C(Oc2cc(Cl)ccc2Cl)C2CCNC2)c1 (centres unmarked) [32-13] | 0.3 | –
15 | N#Cc1cccc(C(Oc2cc(Cl)ccc2Cl)C2CCNC2)c1 (centres unmarked) [32-15] | 13 | –
16 | NC(=O)c1cccc([C@H](Oc2cc(Cl)ccc2Cl)[C@H]2CCNC2)c1 [32-17] | 2 | –
17 | Fc1cc(F)cc(C(Oc2cc(Cl)ccc2Cl)C2CCNC2)c1 (centres unmarked) [32-24] | 7.9 | –

Row | Structure (SMILES) | SERT Ki/NET Ki (hSERT; [1]) | further results
18 | Fc1cc(F)cc([C@H](Oc2cc(Cl)ccc2Cl)[C@H]2CCNC2)c1 [32-25] | 25 | –
19 | Cc1ccc(OC(c2ccccc2)C2CCNC2)cc1F (centres unmarked) [33-3] | 0.3 | –
20 | Fc1cc(Cl)cc(OC(c2ccccc2)C2CCNC2)c1 (centres unmarked) [34-4] | 0.3 | –
21 | Fc1cc(F)cc(C(Oc2cc(Cl)cc(Cl)c2)C2CCNC2)c1 (centres unmarked) [35-16] | – | SERT Ki/NET Ki (hSERT; [2]): 0.5
22 | Cc1ccc(Cl)c(OC(c2ccccc2)C2CCNC2)c1Cl (centres unmarked) [40-31] | – | SERT Ki/NET Ki (hSERT; [2]): 0.6
23 | Cc1ccc(Cl)c(OC(c2ccccc2)C2CCNC2)c1Cl (centres unmarked) [40-32] | – | SERT Ki/NET Ki (hSERT; [2]): 1
24 | Cc1ccc(Cl)c(OC(c2ccccc2)C2CCNC2)c1Cl (centres unmarked) [40-33] | – | SERT Ki/NET Ki (hSERT; [2]): 3.2
25 | Cc1ccc(Cl)c(OC(c2ccccc2)C2CCNC2)c1Cl (centres unmarked) [40-34] | – | SERT Ki/NET Ki (hSERT; [2]): 0.1
26 | Fc1cc(F)cc(C(Oc2c(Cl)ccc(Cl)c2Cl)C2CCNC2)c1 (centres unmarked) [41-13] | – | SERT Ki/NET Ki (hSERT; [2]): 2
27 | Cc1cc(F)cc(C(Oc2c(Cl)ccc(C)c2Cl)C2CCNC2)c1 (centres unmarked) [41-22] | – | SERT Ki/NET Ki (hSERT; [2]): 0.3
28 | NC(=O)c1cccc(C(Oc2c(F)ccc(F)c2Cl)C2CCNC2)c1 (centres unmarked) [41-38] | – | SERT Ki/NET Ki (hSERT; [2]): 0.1
29 | N#Cc1cccc([C@H](Oc2c(F)cc(F)cc2F)[C@H]2CCNC2)c1 [45-3] | – | SERT Ki/NET Ki (hSERT; [3]): 3.2
30 | Fc1c(F)c(F)c(O[C@H](c2ccccc2)[C@@H]2CCNC2)c(F)c1F [49-2] | – | SERT Ki/NET Ki (hSERT; [3]): 0.2
31 | c1ccc(COc2ccccc2OC(c2ccccc2)C2CCNC2)cc1 (centres unmarked) [Compound 19-23] | – | SERT Ki/NET Ki (hSERT; [4]): 3.2
32 | Fc1c(Cl)cccc1OC(c1ccccc1)C1CCNC1 (centres unmarked) [Compound 25-4] | – | SERT Ki/NET Ki (hSERT; [4]): 5
33 | c1ccc(OC(c2ccccc2)C2CCNC2)cc1 (centres unmarked) [Ex. 17-1, 3-(Phenoxyphenylmethyl)pyrrolidine] | – | Ki (hNET; membranes of HEK-293 cells expressing hNET, 1.0 nM 3H-nisoxetine): 6.31 nM
